In patent US8530388B2, “Cyclopentadione derived herbicides” (Syngenta Limited, priority 2009, dated 2013):

Experiments:
Type in all cases: in vivo
Lolium perenne (LOLPE) [1] = test: Pre-emergence herbicidal activity, glasshouse pot test; conditions: 312 h, Rate 250 g/ha, sprayed one day after sowing, evaluated after 13 days, 100=total damage to plant, 0=no damage to plant
Protocol: (§1) Seeds of a variety of test species were sown in standard soil in pots. After cultivation for one day (pre-emergence) or after 8 days cultivation (post-emergence) under controlled conditions in a glasshouse (at 24/16° C., day/night; 14 hours light; 65% humidity), the plants were sprayed with an aqueous spray solution derived from the formulation of the technical active ingredient in acetone/water (50:50) solution containing 0.5% Tween 20 (polyoxyethelyene sorbitan monolaurate, CAS RN 9005-64-5). The test plants were then grown in a glasshouse under controlled conditions in a glasshouse (at 24/16° C., day/night; 14 hours light; 65% humidity) and watered twice daily. After 13 days for pre and post-emergence, the test was evaluated (100=total damage to plant; 0=no damage to plant). Test plants: Setaria faberi (SETFA), Lolium perenne (LOLPE), Alopecurus myosuroides (ALOMY), Echinochloa crus-galli (ECHCG), and Avena fatua (AVEFA) Pre-Emergence Activity

[2] = test system: Alopecurus myosuroides (ALOMY); test: as above; conditions: 312 h, Rate 250 g/ha, sprayed one day after sowing, evaluated after 13 days, 100=total damage to plant, 0=no damage to plant
Protocol: as §1

[3] = test system: Echinochloa crus-galli (ECHCG); test: as above; conditions: 312 h, Rate 250 g/ha, sprayed one day after sowing, evaluated after 13 days, 100=total damage to plant, 0=no damage to plant
Protocol: as §1

Avena fatua (AVEFA) [4] = test: as above; conditions: 312 h, Rate 250 g/ha, sprayed one day after sowing, evaluated after 13 days, 100=total damage to plant, 0=no damage to plant
Protocol: as §1

Lolium perenne (LOLPE) [5] = test: Post-emergence herbicidal activity, glasshouse pot test; conditions: 312 h, rate 250 g/ha, evaluated after 13 days, read-out: Post-emergence activity, LOLPE (100=total damage to plant; 0=no damage to plant)
Protocol: as §1, with “plant).” for “plant). Test plants: Setaria faberi (SETFA), Lolium perenne (LOLPE), Alopecurus myosuroides (ALOMY), Echinochloa crus-galli (ECHCG), and Avena fatua (AVEFA) Pre-Emergence Activity”
(§2) Test plants: Setaria faberi (SETFA), Lolium perenne (LOLPE), Alopecurus myosuroides (ALOMY), Echinochloa crus-galli (ECHCG), and Avena fatua (AVEFA)

[6] = test system: Alopecurus myosuroides (ALOMY); test: as above; conditions: 312 h, rate 250 g/ha, evaluated after 13 days, read-out: Post-emergence activity, ALOMY (100=total damage to plant; 0=no damage to plant)
Protocol: as §1, with “plant).” for “plant). Test plants: Setaria faberi (SETFA), Lolium perenne (LOLPE), Alopecurus myosuroides (ALOMY), Echinochloa crus-galli (ECHCG), and Avena fatua (AVEFA) Pre-Emergence Activity”
as §2

[7] = test system: Echinochloa crus-galli (ECHCG); test: as above; conditions: 312 h, rate 250 g/ha, evaluated after 13 days, read-out: Post-emergence activity, ECHCG (100=total damage to plant; 0=no damage to plant)
Protocol: as §1, with “plant).” for “plant). Test plants: Setaria faberi (SETFA), Lolium perenne (LOLPE), Alopecurus myosuroides (ALOMY), Echinochloa crus-galli (ECHCG), and Avena fatua (AVEFA) Pre-Emergence Activity”
as §2

Avena fatua (AVEFA) [8] = test: as above; conditions: 312 h, rate 250 g/ha, evaluated after 13 days, read-out: Post-emergence activity, AVEFA (100=total damage to plant; 0=no damage to plant)
Protocol: as §1, with “plant).” for “plant). Test plants: Setaria faberi (SETFA), Lolium perenne (LOLPE), Alopecurus myosuroides (ALOMY), Echinochloa crus-galli (ECHCG), and Avena fatua (AVEFA) Pre-Emergence Activity”
as §2

Compound	pest or weed control at 250 g/ha (Lolium perenne (LOLPE) [1]) [%]	pest or weed control at 250 g/ha [2] [%]	pest or weed control at 250 g/ha [3] [%]	pest or weed control at 250 g/ha (Avena fatua (AVEFA) [4]) [%]	pest or weed control at 250 g/ha (Lolium perenne (LOLPE) [5]) [%]	pest or weed control at 250 g/ha [6] [%]	pest or weed control at 250 g/ha [7] [%]	pest or weed control at 250 g/ha (Avena fatua (AVEFA) [8]) [%]
CCc1ccc(-c2c(F)cc(Cl)cc2F)cc1C1=C(O)CCC1=O [Compound T-10]	0	0	0	0	40	30	90	50
CCc1ccc(-c2ccc(Cl)c(F)c2Cl)cc1C1=C(O)CCC1=O [Compound T-11]	30	20	50	10	50	60	90	30
CCc1ccc(-c2ccc(Cl)c(F)c2F)cc1C1=C(O)CCC1=O [Compound T-12]	50	40	50	30	50	50	90	50
CCc1ccc(-c2ccc(Cl)c(Cl)c2F)cc1C1=C(O)CCC1=O [Compound T-13]	0	0	0	0	40	10	60	0
CCc1ccc(-c2ccc(Cl)cc2Cl)cc1C1=C(O)CCC1=O [Compound T-14]	30	10	50	0	30	30	70	30
CCc1ccc(-c2ccc(Cl)c(C)c2)cc1C1=C(O)CCC1=O [Compound T-15]	0	0	0	0	30	10	30	0
CCc1ccc(-c2cc(Cl)c(Cl)cc2Cl)cc1C1=C(O)CCC1=O [Compound T-16]	20	0	50	0	60	50	80	80
CCc1ccc(-c2ccc(F)cc2)cc1C1=C(O)CCC1=O [Compound T-17]	60	40	80	0	50	50	70	40
CCc1ccc(-c2ccc(C(F)(F)F)cc2)cc1C1=C(O)CCC1=O [Compound T-18]	30	50	50	30	70	80	100	90
CCc1ccc(-c2ccc(Cl)c(C(F)(F)F)c2F)cc1C1=C(O)CCC1=O [Compound T-19]	20	0	10	0	60	60	70	20
